Assay results taken from patent US9295638B2, “Prevention and treatment of cardiovascular diseases using systems and methods for transdermal nitric oxide delivery” (priority 2012, dated 2016).

Experiments:
[1] = Nitric oxide absorption by carriers (weight gain on bubbling NO gas); type: physicochemical; settings: NO gas bubbled 40 hr, 25 °C
Method: This example illustrates one technique for preparing a composition in accordance with one embodiment of the invention. An accurate amount of a carrier (HNC 167-62) (see below) was introduced into a system. The carrier weight used in these experiments was approximately 250 g and the vessel size was 500 ml. The vessel was equipped with a mechanical stirrer, gas inlet, and gas outlet and was previously purged with argon for about an hour. The temperature of the carrier was kept at about 25-30° C. NO gas regulated at 5 psi (1 psi is about 6,900 Pa) and was then introduced at a controlled rate of about 1 bubble/s with continuous stirring. […] After 6 hours, the weight of the carrier had increased by 0.15%, by 12 hours by 0.25%, and by 24 hours by 0.56%. These increases in weight were believed to be significant considering the relative small molecular weight of NO versus the carrier. […] The carrier also can solidify upon cooling if the carrier is initially a solid at lower temperature.
Each carrier was taken in a 500 mL three necked flask equipped with a mechanical stirrer, gas inlet and a gas outlet. The system was purged with argon for one hour at room temperature (25° C.). Then nitric oxide gas was bubbled into the system. Then, nitric oxide gas was bubbled through carrier for stipulated amount of time. The changes in weight and color were noted. […]

[2] = tested on: capillary circulation of the skin; assay: Laser Doppler circulation in five human subjects (Example 8); type: in vivo; settings: positive control formulation containing 0.1% methyl nicotinate
Text: This example illustrates delivery of nitric oxide formulations to five human subjects, using procedures and formulations similar to those discussed in Example 6. Each person served as their own control for the testing. A Moor Instruments Laser Doppler was used to determine circulation. […] The formulations used produce positive, almost immediate results when applied to the skin which, in these studies, was manifested by vasodilatation of the cutaneous vascular system.
For each subject, the following creams were applied: a negative control formulation (containing no NO), 0.010 gram of a 10,000 ppm NO formulation, 0.020 gram of a 10,000 ppm NO formulation, and a positive control formulation containing 0.1% methyl nicotinate. The formulations were prepared using procedures similar to those discussed in Example 1.

[3] = tested on: micro-capillary blood flow to skin; assay: Laser Doppler capillary blood flow in humans, 10,000 ppm NO in closed chamber (Example 6); type: in vivo; settings: applied to the skin at 1/10% in alcohol
Text: The formulation used in these studies contained nitric oxide dispersed in a lipid matrix. […] Nitric oxide is a very rapid acting molecule, and these studies used a system that employed laser Doppler with a covered chamber. The formulation was placed into the chamber and then attached to the skin by an adhesive layer on the covering. This provided a stable measuring device as determined by multiple normal evaluations of the capillary blood flow without treatment of nitric oxide.
A known positive control, methyl nicotinate, was applied to the skin at a concentration of 1/10% in alcohol. […] The vascular dynamics are such that when the blood vessels dilate physical parameters follow Bernoulli's law. This states that as one increases the diameter of a tube containing a liquid to flow will increase but the pressure and the speed of the liquid will decrease. The laser Doppler device accurately measured these parameters.
The test product was labeled as 10,000 ppm NO (nitric oxide). The study participants had 100 mg of the test product applied in a closed Hilltop chamber on the forearm. […]
A Moor Instruments DRT4 Laser Doppler Blood Flow Monitor (Devon, England) was used in these studies. The laser Doppler technique measured blood flow in the microcapillaries of the skin that are close to the skin surface and the blood flow in underlying arterioles and venules that help to regulate skin temperature. […]

OCCCO [1,3-Propanediol, 1,3-propanediol]
% Wt. gain [1]: 0.09%

COC(=O)c1cccnc1 [methyl nicotinate]
vasodilatation [2]: vasodilatation was observed
laser Doppler response of positive control [3]: rapid response typical of the vasodilator
